Each structure is given as a SMILES string.

With `CCOC1Oc2c(c(=O)oc3ccccc23)C1c1c(O)c2ccccc2oc1=O` (stereo not shown), the melting point was 166 to 169 °C. Compound `O=c1oc2cc(O)c(O)cc2c(O)c1C1=CCOc2oc3ccccc3c(=O)c21` displayed a melting point of 258 to 260 °C.

In the case of `O=c1oc2ccccc2c(O)c1C(CCCC(c1c(O)c2ccccc2oc1=O)c1c(O)c2ccccc2oc1=O)c1c(O)c2ccccc2oc1=O`, the melting point fell in the range of 291 to 294 °C. In the case of `O=c1oc2cc(O)ccc2c(O)c1C(CCCC(c1c(O)c2ccc(O)cc2oc1=O)c1c(O)c2ccc(O)cc2oc1=O)c1c(O)c2ccc(O)cc2oc1=O` it was 299 to 302 °C. In the case of `O=c1oc2cc(O)cc(O)c2c(O)c1C(CCCC(c1c(O)c2c(O)cc(O)cc2oc1=O)c1c(O)c2c(O)cc(O)cc2oc1=O)c1c(O)c2c(O)cc(O)cc2oc1=O` it was > 300 °C.

As for `O=c1oc2cc(O)c(O)cc2c(O)c1C(CCCC(c1c(O)c2cc(O)c(O)cc2oc1=O)c1c(O)c2cc(O)c(O)cc2oc1=O)c1c(O)c2cc(O)c(O)cc2oc1=O`, the melting point is > 300 °C. In the case of `O=c1oc2c(O)c(O)ccc2c(O)c1C(CCCC(c1c(O)c2ccc(O)c(O)c2oc1=O)c1c(O)c2ccc(O)c(O)c2oc1=O)c1c(O)c2ccc(O)c(O)c2oc1=O`, the melting point was > 300 °C.

In the case of `O=Cc1ccccc1C(c1c(O)c2ccc(O)cc2oc1=O)c1c(O)c2ccc(O)cc2oc1=O`, the melting point is > 300 °C.

For `O=Cc1ccccc1C(c1c(O)c2ccc(O)c(O)c2oc1=O)c1c(O)c2ccc(O)c(O)c2oc1=O`, the melting point is > 300 °C. As to `O=c1oc2ccccc2c(O)c1C1c2ccccc2Oc2c1c(=O)oc1ccccc21` (stereo not shown), the melting point is > 255 °C (dec.). In the case of `O=c1oc2cc(O)cc(O)c2c(O)c1C1c2ccccc2Oc2c1c(=O)oc1cc(O)cc(O)c21` (stereo not shown) it was > 300 °C; in that of `O=c1oc2cc(O)ccc2c(O)c1-c1coc2c1c(=O)oc1cc(O)ccc12`, > 300 °C. In the case of `COC1Oc2c(c(=O)oc3cc(O)ccc23)C1c1c(O)c2ccc(O)cc2oc1=O` (stereo not shown) it was > 300 °C. On to `O=CC(c1c(O)c2ccc(O)cc2oc1=O)c1c(O)c2ccc(O)cc2oc1=O`, for which the melting point is > 300 °C. On to `O=c1oc2ccccc2c(O)c1C(CC(c1c(O)c2ccccc2oc1=O)c1c(O)c2ccccc2oc1=O)c1c(O)c2ccccc2oc1=O`, for which the melting point was in the range of 286 to 288 °C. `O=c1oc2cc(O)cc(O)c2c(O)c1C1=CCOc2oc3ccccc3c(=O)c21` yielded a melting point of 254 to 256 °C.

As a reminder, the melting point is the temperature, or range, at which the solid turns liquid.

The record behind these values is patent US20050075388A1 (published 2005).
